Data as given in ChEMBL document CHEMBL5154702, “Synthesis and biological evaluation of aminobenzamides containing purine moiety as class I histone deacetylases inhibitors” (Bioorg Med Chem, 2022).
pIC50: −log10 of the molar value. Active and inactive are the calls of the source. No cut-off for these calls is given here.

Experiments:
Histone deacetylase 8 = molecular target: T1, Histone deacetylase 8 (Homo sapiens, UniProt Q9BY41); assay: Inhibition of human full-length C-terminal His-tagged HDAC8 expressed in baculovirus infected Sf9 insect cell using fluorogenic HDAC class 2a substrate measured after 30 mins by fluorimetry
T1 sequence (Q9BY41 whole entry): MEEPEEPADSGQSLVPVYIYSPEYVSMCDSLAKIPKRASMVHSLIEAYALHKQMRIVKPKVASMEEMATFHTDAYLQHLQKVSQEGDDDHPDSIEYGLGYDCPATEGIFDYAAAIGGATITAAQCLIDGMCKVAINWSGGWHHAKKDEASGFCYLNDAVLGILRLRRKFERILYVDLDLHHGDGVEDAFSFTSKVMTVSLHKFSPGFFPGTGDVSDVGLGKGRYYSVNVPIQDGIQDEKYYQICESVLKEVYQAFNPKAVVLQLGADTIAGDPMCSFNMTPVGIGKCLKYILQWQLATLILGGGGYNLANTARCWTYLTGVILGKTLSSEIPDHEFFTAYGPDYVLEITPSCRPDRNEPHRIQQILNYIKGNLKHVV

[1] = molecular target: T2, Protein deacetylase HDAC6 (Homo sapiens, UniProt Q9UBN7); assay: Inhibition of recombinant human N-terminal GST-tagged HDAC6 (1 to 1215 residues) expressed in Sf9 insect cells using fluorogenic HDAC substrate 3 measured after 30 mins by fluorimetry
T2 sequence (Q9UBN7 whole entry): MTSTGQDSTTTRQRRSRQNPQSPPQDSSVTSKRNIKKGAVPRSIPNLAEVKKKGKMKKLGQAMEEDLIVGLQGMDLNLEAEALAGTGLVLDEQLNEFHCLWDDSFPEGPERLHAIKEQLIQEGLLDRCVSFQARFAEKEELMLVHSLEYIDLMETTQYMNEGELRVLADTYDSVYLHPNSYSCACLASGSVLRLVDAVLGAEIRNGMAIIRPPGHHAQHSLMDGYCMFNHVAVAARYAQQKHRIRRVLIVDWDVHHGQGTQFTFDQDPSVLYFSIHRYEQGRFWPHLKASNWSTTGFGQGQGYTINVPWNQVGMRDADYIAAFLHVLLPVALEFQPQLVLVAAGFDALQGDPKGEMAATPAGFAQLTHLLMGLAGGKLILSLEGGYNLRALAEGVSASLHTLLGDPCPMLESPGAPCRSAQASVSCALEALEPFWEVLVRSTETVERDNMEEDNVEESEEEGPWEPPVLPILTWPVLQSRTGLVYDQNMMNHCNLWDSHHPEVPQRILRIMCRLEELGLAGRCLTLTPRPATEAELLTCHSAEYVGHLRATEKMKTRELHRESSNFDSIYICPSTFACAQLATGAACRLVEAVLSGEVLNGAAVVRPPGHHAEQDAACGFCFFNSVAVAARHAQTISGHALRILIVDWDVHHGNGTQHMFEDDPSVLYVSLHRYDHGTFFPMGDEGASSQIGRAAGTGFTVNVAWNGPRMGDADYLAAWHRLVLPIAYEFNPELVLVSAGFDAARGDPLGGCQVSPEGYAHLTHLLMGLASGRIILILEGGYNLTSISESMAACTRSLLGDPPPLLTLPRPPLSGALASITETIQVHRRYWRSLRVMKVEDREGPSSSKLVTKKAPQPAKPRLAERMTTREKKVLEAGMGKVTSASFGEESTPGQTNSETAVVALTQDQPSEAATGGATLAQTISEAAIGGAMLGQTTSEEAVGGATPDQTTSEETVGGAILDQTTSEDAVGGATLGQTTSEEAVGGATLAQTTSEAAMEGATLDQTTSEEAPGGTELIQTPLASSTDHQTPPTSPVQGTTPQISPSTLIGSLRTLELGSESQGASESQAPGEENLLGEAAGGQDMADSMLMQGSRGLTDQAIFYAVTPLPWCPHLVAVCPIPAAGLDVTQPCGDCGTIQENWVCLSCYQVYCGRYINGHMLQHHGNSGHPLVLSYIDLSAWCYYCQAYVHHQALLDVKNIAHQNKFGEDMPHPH

Histone deacetylase 1 [2] = molecular target: T3, Histone deacetylase 1 (Homo sapiens, UniProt Q13547); assay: Inhibition of recombinant human full-length C-terminal Flag-His6-tagged HDAC1 (1 to 482 residues) expressed in Sf9 insect cells using fluorogenic HDAC substrate measured after 30 mins by fluorimetry
T3 sequence (Q13547 whole entry, the tested form may be a part): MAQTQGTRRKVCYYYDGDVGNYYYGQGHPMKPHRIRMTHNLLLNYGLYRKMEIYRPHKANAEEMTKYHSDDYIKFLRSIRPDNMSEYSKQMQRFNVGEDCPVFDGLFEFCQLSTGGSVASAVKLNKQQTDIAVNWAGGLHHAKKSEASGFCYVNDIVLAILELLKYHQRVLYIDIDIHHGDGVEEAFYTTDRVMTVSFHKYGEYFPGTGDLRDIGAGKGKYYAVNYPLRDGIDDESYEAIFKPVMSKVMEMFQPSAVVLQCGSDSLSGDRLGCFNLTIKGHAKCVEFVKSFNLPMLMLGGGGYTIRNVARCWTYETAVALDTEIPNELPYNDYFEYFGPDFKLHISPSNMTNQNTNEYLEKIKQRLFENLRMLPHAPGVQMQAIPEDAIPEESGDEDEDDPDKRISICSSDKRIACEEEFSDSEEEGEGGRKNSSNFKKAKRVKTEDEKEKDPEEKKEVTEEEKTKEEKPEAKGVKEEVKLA

Histone deacetylase 1 [3] = molecular target: T3, Histone deacetylase 1; assay: Potency index, ratio of MS-275 IC50 to test compound IC50 for inhibition of recombinant human full-length C-terminal Flag-His6-tagged HDAC1 (1 to 482 residues) expressed in Sf9 insect cells
HCT-116 [4] = assay: Antiproliferative activity against human HCT-116 cells measured after 48 hrs by MTT assay; assay type: functional, cell-based; settings: HCT-116, 48 h
[5] = molecular target: Histone deacetylase 1/2/3 (Homo sapiens) (UniProt Q13547+O15379+Q92769); assay: Inhibition of HDAC1/HDAC2/HDAC3 in human HCT-116 cells assessed as increase in accumulation of acetylated H4K5 measured after 24 hrs by Western blot analysis; assay type: cell-based; settings: dose 0.1-10 µM, DDE = dose-dependent effect
HCT-116 [6] = assay: Induction of cell morphological changes in human HCT-116 cells assessed as […] deformation at 0.5 to 5 uM measured after 24 hrs by phase contrast microscopy; assay type: functional, cell-based; settings: dose 0.5-5 µM
HCT-116 [7] = assay: Induction of cell morphological changes in human HCT-116 cells assessed as cell shrinkage at 0.5 to 5 uM measured after 24 hrs by phase contrast microscopy; assay type: functional, cell-based; settings: dose 0.5-5 µM
HCT-116 [8] = assay: Cell cycle arrest in human HCT-116 cells assessed as accumulation of cells at G2/M phase at 1 uM measured after 24 hrs by propidium iodide staining based flow cytometry (reference value: 22.74%); assay type: functional
HCT-116 [9] = assay: Cell cycle arrest in human HCT-116 cells assessed as accumulation of cells at G2/M phase at 5 uM measured after 24 hrs by propidium iodide staining based flow cytometry (reference value: 22.74%); assay type: functional
HCT-116 [10] = assay: Cell cycle arrest in human HCT-116 cells assessed as increase in accumulation of cells at G0/G1 phase at 10 uM by propidium iodide staining based flow cytometry; assay type: functional; settings: time 6-24 hrs, TDE = time-dependent effect
HCT-116 [11] = assay: Cell cycle arrest in human HCT-116 cells assessed as accumulation of cells at G0/G1 phase at 10 uM measured after 6 hrs by propidium iodide staining based flow cytometry (reference value: 58.05%); assay type: functional
HCT-116 [12] = assay: Cell cycle arrest in human HCT-116 cells assessed as accumulation of cells at G2/M phase at 10 uM measured after 6 hrs by propidium iodide staining based flow cytometry (reference value: 22.74%); assay type: functional
HCT-116 [13] = assay: Cell cycle arrest in human HCT-116 cells assessed as down regulation of Bcl-2 expression at 5 uM by Western blot analysis; assay type: functional, cell-based; settings: time 6-48 hrs, TDE = time-dependent effect
HCT-116 [14] = assay: Cell cycle arrest in human HCT-116 cells assessed as up regulation of Bax expression at 5 uM by Western blot analysis; assay type: functional, cell-based; settings: time 6-48 hrs, TDE = time-dependent effect
[15] = Intrinsic clearance in dog liver microsomes assessed per mg protein at 13.8 uM by HPLC analysis; assay type: ADME, Canis lupus familiaris, Microsome
[16] = Intrinsic clearance in human liver microsomes assessed per mg protein at 13.8 uM by HPLC analysis; assay type: ADME, Microsome

pIC50 (Histone deacetylase 8): 6.02
pIC50 (Histone deacetylase 1 [2]): 7.26
Ratio IC50 (Histone deacetylase 1 [3]): 12
pIC50 (HCT-116 [4]): 6.30
inhibition [5]: Dde
CLint [15]: 3.1 µL/min/mg
CLint [16]: 2.5 µL/min/mg
Structure (SMILES): CCCCNc1nc(Cl)nc2c1ncn2Cc1ccc(C(=O)Nc2ccccc2N)cc1
pIC50 [1]: 4.47
Activity (HCT-116 [6]): Active
Activity (HCT-116 [7]): Active
Activity (HCT-116 [8]): 15.43%
Activity (HCT-116 [9]): 14.39%
Activity (HCT-116 [10]): Tde
Activity (HCT-116 [11]): 65.62%
Activity (HCT-116 [12]): 20.04%
Activity (HCT-116 [13]): Tde
Activity (HCT-116 [14]): Tde
